Paper PMC5683375, “Vasculotide reduces pulmonary hyperpermeability in experimental pneumococcal pneumonia” (Critical Care, 2017)
“Also recorded” adds a separate entry of the source. Like-named read-outs stand apart in the source and are kept apart here.

Tests used:
[1] = test system: human immunoglobulin G (IgG) Fc; experiment: Tryptophan fluorescence spectroscopy, VT with human IgG Fc (specificity control); assay type: binding; conditions: recombinant human IgG Fc
Description: (§1) Binding studies were carried out in 96 well plates (Brand-plates pureGrade reference 781607; BRAND GMBH + CO KG, Wertheim, Germany). Mouse Tie2Fc receptor and human immunoglobulin G (IgG) Fc were obtained from R&D Systems (Minneapolis, MN, USA). Dilutions were prepared in HyClone™ Dulbecco’s PBS (GE Healthcare Life Sciences, Mississauga, ON, Canada). The saturation binding curve was prepared with all ligand dilutions and receptors as 2× concentrations. Equal volumes of ligand and receptor were added to generate a final 1× concentration (500 nM Tie2Fc final concentration). Spectroscopic studies were performed on a SpectraMax M2 fluorometer (Molecular Devices, Sunnyvale, CA, USA). Measurements were taken at an excitation wavelength of 295 nm. Emission scans were set from 360 to 450 nm.

[2] = test system: Streptococcus pneumoniae-infected mice; experiment: BALF leukocyte recruitment (FACS) in Streptococcus pneumoniae-infected mice; conditions: VT 500 ng i.v., 24 h and 48 h p.i., n = 8
Description: For all experiments, female C57BL/6 N mice (8 to 10 weeks old, weighing 18 to 20 g; Charles River Laboratories, Sulzfeld, Germany) were used. Animals were housed under specific pathogen-free conditions under a 12–h/12-h light/dark cycle with free access to food and water.
Mice were anesthetized with ketamine (80 mg/kg) and xylazine (25 mg/kg) and transnasally inoculated with 5 × 10^6 colony-forming units (CFU) of S. pneumoniae (NCTC7978) in 20 μl of sterile PBS as described before [35]. Sham-infected control mice received 20 μl of sterile PBS. After 22 h, 34 h, and 46 h, body weight and rectal temperature were measured, and different dosages of VT (100, 200, or 500 ng in 100 μl of PBS) or PBS were intravenously injected into the tail vein. Twenty-four or forty-eight hours postinfection (p.i.), mice were anesthetized (160 mg/kg ketamine and 75 mg/kg xylazine) and exsanguinated. […] Subsequently, lungs were flushed, and BAL was performed. To determine permeability, HSA (1 mg/75 μl) was intravenously infused 1 h before lung preparation, and the BALF/plasma ratio was calculated as described elsewhere [35]. […] Cytokines from BALF were measured with a multiplex assay (ProcartaPlex; eBioscience), and plasma levels of interleukin (IL)-6 (BD Biosciences) and KC (keratinocyte chemoattractant; R&D Systems) were quantified by ELISA.

[3] = test system: Streptococcus pneumoniae-infected mice; experiment: Lung histology (edema formation, lung injury) in Streptococcus pneumoniae-infected mice; assay type: in vivo, mouse (C57BL/6 N)
Description: Identical experiments were performed separately for histological analyses of the lungs. Mice were anesthetized 24 h or 48 h p.i. […] After ligation of the trachea, mouse lungs were removed and immediately immersion-fixed in 4% buffered formalin, embedded in paraffin, cut into 2-μm-thick sections, and stained with hematoxylin and eosin as described elsewhere. The degree of edema formation was assessed semiquantitatively (0 = no edema, 1 = minimal edema, 2 = mild edema, 3 = moderate edema, 4 = severe edema). Three evenly distributed sections per lung were microscopically evaluated to assess edema formation.

mouse Tie2Fc receptor = target: T1, mouse Tie2Fc receptor (Mus musculus, UniProt Q02858); experiment: Tryptophan fluorescence spectroscopy, saturation binding of VT to mouse Tie2Fc
T1 construct: Fc (immunoglobulin Fc fusion partner); purchased R&D Systems
Description: as §1
Saturation binding data (Fig. 1a–c) are presented as mean ± SEM and were calculated using normalized one-site specific binding and nonlinear regression. For the Tie2 phosphorylation analysis (Fig. 1d), one-way analysis of variance (with Dunnett’s post hoc multiple comparisons test) was used to compare treatment groups with the vehicle-treated group. All other experimental data are expressed as mean, mean + SEM, or mean ± SEM. Groups were compared using the Mann-Whitney U test followed by the Bonferroni-Holm correction, where indicated. p Values < 0.05 were considered significant. Analyses were performed using Prism version 6.00 software (GraphPad Software, La Jolla, CA, USA).

Tie2 = Tie2 phosphorylation in mouse primary lung microvascular endothelial cells (phospho-Tie2 ELISA); assay type: cell-based; conditions: VT 1, 10, 100, 1000 ng/ml, 15 minutes, serum-containing media; phospho-Tie2 and total Tie2 ELISA; n = 3-6
Description: C57BL/6 mouse primary lung microvascular endothelial cells (Cell Biologics, Chicago, IL, USA) were grown in endothelial cell medium with a kit (Cell Biologics) in 20% O2/5% CO2 in a 37 °C humidified chamber and split 1:2 once reaching 90–95% confluency. To examine the activation of Tie2 by VT in mouse primary lung microvascular endothelial cells, 95–100% confluent cells were stimulated with VT (1, 10, 100, and 1000 ng/ml) in serum-containing media for 15 minutes. Human Ang-1 (R&D Systems) was used as a positive control. VT was synthesized, purified, and validated as described before. Cell lysates were collected using lysis buffer recommended in the mouse phospho-Tie-2 enzyme-linked immunosorbent assay (ELISA) kit (R&D Systems); tyrosine-phosphorylated Tie2 and total Tie2 were measured using ELISA kits (mouse phospho-Tie2 and total-Tie2 ELISA kits; R&D Systems). Three to six independent experiments were analyzed.
Saturation binding data (Fig. 1a–c) are presented as mean ± SEM and were calculated using normalized one-site specific binding and nonlinear regression. For the Tie2 phosphorylation analysis (Fig. 1d), one-way analysis of variance (with Dunnett’s post hoc multiple comparisons test) was used to compare treatment groups with the vehicle-treated group. All other experimental data are expressed as mean, mean + SEM, or mean ± SEM. […]

[4] = test system: human pulmonary microvascular endothelial cells (hPMVEC); experiment: Immunofluorescence staining (VE-cadherin, actin) of human pulmonary microvascular endothelial cells; assay type: cell-based; conditions: VT 300 ng/ml
Description: Human pulmonary microvascular endothelial cells (hPMVEC; PromoCell, Heidelberg, Germany), used at passages 4–6, were grown to confluence on glass slides, incubated with VT (300 ng/ml) or sterile PBS as a control for 90 minutes and then stimulated with LPS (0.1 μg/ml) from Escherichia coli (Sigma-Aldrich, Steinheim, Germany), PLY (0.25, 0.5, 0.75 μg/ml), or PBS. After 30 minutes, cells were fixed in 3% formalin, and the […] vascular endothelial (VE)-cadherin (1:400, goat antihuman VE-cadherin; Santa Cruz Biotechnology, Santa Cruz, CA, USA; secondary antibody 1:8000, Alexa Fluor 488 F(ab′)2 rabbit antigoat IgG (H + L), Invitrogen, Darmstadt, Germany) and actin fibers (1:2000; phalloidin Alexa 546-labeled; Invitrogen) were stained to evaluate cell morphology. 4′,6-diamidino-2-phenylindole staining (Sigma-Aldrich) was used to visualize cell nuclei. The immunofluorescence of the cells was analyzed by confocal microscopy using an LSM 780 microscope with ZEN 2011 software (objective: Plan Apochromat × 63/1.40 oil; Carl Zeiss Microscopy, Jena, Germany).

T1 sequence (Q02858 with tags, fused parts or gaps limits assumed): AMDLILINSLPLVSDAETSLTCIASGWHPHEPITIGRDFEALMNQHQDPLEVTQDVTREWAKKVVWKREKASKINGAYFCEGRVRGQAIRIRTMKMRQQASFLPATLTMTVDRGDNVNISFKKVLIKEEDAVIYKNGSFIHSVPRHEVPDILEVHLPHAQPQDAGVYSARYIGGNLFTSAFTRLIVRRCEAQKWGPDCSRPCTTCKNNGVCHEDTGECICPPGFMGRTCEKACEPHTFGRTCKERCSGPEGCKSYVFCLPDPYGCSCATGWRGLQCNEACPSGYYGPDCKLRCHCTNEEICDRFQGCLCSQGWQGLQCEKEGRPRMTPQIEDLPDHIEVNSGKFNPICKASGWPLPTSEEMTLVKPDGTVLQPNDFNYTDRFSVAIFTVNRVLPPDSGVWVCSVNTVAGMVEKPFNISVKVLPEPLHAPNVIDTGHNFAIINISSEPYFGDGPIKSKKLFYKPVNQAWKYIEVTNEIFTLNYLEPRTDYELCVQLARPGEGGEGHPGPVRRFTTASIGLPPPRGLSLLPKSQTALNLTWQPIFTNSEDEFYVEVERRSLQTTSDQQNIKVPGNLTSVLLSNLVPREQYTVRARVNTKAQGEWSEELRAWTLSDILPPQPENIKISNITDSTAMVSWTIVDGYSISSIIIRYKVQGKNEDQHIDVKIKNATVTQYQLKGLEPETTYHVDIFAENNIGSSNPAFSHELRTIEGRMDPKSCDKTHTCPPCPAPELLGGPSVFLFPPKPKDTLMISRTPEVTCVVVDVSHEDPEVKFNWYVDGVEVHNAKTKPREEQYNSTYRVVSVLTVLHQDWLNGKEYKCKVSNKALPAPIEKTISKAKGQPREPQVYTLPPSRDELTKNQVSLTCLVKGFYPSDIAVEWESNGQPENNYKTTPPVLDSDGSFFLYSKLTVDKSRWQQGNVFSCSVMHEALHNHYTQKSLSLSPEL

Substance: Vasculotide [VT]
- fluorescence intensity / binding with human IgG Fc [1]: No saturation of binding is observed; also recorded: no dose-dependent increase in fluorescence intensity
- pulmonary leukocyte recruitment (BALF) [2]: did not significantly reduce; also recorded: not significantly affected; also recorded: not significantly reduced
- lung injury (histology) ([3]; VT 500 ng i.v., 24 h and 48 h p.i., n = 3-4, vs PBS): reduced lung injury
- perivascular edema formation, 24 h p.i. ([3]; VT 500 ng i.v., 24 h p.i., n = 3-4, vs PBS): considerably reduced
- neutrophil infiltration of perivascular spaces, 48 h p.i. ([3]; VT 500 ng i.v., 48 h p.i., n = 3-4): without differences between the VT-treated and untreated infected groups
- alveolar edema formation, 48 h p.i. ([3]; VT 500 ng i.v., 48 h p.i., n = 3-4, vs PBS): diminished; also recorded: almost completely abolished (three of four mice); also recorded: nearly devoid of the additional massive alveolar edema formation
- perivascular edema, 48 h p.i. ([3]; VT 500 ng i.v., 48 h p.i., n = 3-4, vs untreated (PBS)): less perivascular edema than the untreated group
- edema or other pathological changes in perivascular spaces, sham-infected ([3]; sham-infected groups, VT 500 ng i.v. or PBS, 24 h and 48 h p.i.): no edema formation or other pathological changes
- saturability of fluorescence intensity with mouse Tie2Fc (mouse Tie2Fc receptor; 500 nM Tie2Fc): saturable
- intrinsic fluorescence intensity / binding with mouse Tie2Fc (mouse Tie2Fc receptor; 500 nM Tie2Fc, excitation 295 nm): dose-dependent binding; also recorded: dose-dependent increase in intrinsic fluorescence intensity
- Kd (mouse Tie2Fc receptor; 95% confidence interval, 500 nM Tie2Fc, one-site specific binding, read-out: 95% CI of the dissociation constant, mouse Tie2Fc): 2.92 to 67 nM
- dissociation constant, in words (mouse Tie2Fc receptor; murine Tie2 receptor, discussion): in the low nanomolar range
- Kd (mouse Tie2Fc receptor; tryptophan fluorescence, excitation 295 nm, emission 360-450 nm, 500 nM Tie2Fc, PBS, normalized one-site specific binding, nonlinear regression, read-out: dissociation constant of the normalized specific binding of VT to mouse Tie2Fc): 35 nM
- Tie2 phosphorylation (Tie2): resulted in Tie2 phosphorylation in a dose-dependent manner; also recorded: dose-dependent phosphorylation of Tie2
- monolayer stabilization (gap formation, stress fibers, cell loss) after LPS or PLY ([4]; 90 minutes pretreatment, LPS 0.1 μg/ml or PLY 0.25, 0.5, 0.75 μg/ml for 30 minutes, three independent experiments): stabilized cell monolayers, protected from gap formation, and reduced stress fibers as well as cell loss; also recorded: stabilized the cell monolayer, avoided gap formation, and reduced stress fibers and cell loss from culture dishes
- effect on unstimulated hPMVEC monolayer ([4]; 90 minutes, no LPS or PLY): no effect of VT pretreatment was observed; also recorded: intact monolayers with tight intercellular contacts and thin actin fibers
